Experimental data from ChEMBL document CHEMBL1128657, “Synthesis and in vitro biological evaluation of new triphenylethylene platinum (II) complexes” (Bioorg Med Chem Lett, 1995).

How the values were obtained:
MDA-MB-231 = test: In vitro inhibition of estrogen receptor negative […] human mammary carcinoma cell proliferation; type: functional, cell-based
MCF7 = test: In vitro inhibition of estrogen receptor positive MCF-7 human mammary carcinoma cell proliferation; type: functional, cell-based

## COc1ccc(C(=C(CCCCCCCCCCCNCCN)c2ccccc2)c2ccc(OC)cc2)cc1
MDA-MB-231; Homo sapiens, MDA-MB-231
  IC50: 2.3 µM
MCF7; Homo sapiens, MCF7
  IC50: 14 µM

## CC/C(=C(\c1ccccc1)c1ccc(OCCN(C)C)cc1)c1ccccc1 [TAMOXIFEN]
MDA-MB-231; Homo sapiens, MDA-MB-231
  IC50: 28 µM
MCF7; Homo sapiens, MCF7
  IC50: 17 µM

## CISPLATIN
MDA-MB-231; mda-mb-231
  IC50: 3.4 µM
MCF7; mcf7
  IC50: 3 µM
